For 21 molecules, Ki results are on record in US11033539B2, “Compounds of formulas (VII), (VIII), (IX), (XI), (XII), (XIII), and (XIV) as muscarinic receptor 4(M4) antagonists for treating neurological diseases” (Neurocrine Biosciences, Inc., priority 2015, dated 2021).

Broadly, the Ki is the equilibrium dissociation constant of an inhibitor or competing ligand from its target.

Structures are written as SMILES.

In one test the target is human M1 receptor (Homo sapiens (Human), UniProt P11229). As to the kind of experiment: Radioligand (tritiated N-methylscopolamine) binding assay, M1. The note with it: CHO cell membranes expressing human M1; 1.5 nM tritiated N-methylscopolamine; 90 min, 37° C.; read-out: Ki against M1 receptor (Table 21, M1). The procedure, abridged:
(§1)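 CHO membranes; 1.5 nM radioligand; 12-point compound dose-response, 10 μM to […]; HEPES/NaCl/MgCl2/EDTA buffer pH 7.4; 90 min, 37 °C. PEI-treated glass fiber filtration, radioactivity counting. Ki from inhibition of binding.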

The target of another test is human M2 receptor (Homo sapiens (Human), UniProt P08172). As to the kind of experiment: Radioligand (tritiated N-methylscopolamine) binding assay, M2. To be noted: CHO cell membranes expressing human M2; 1.5 nM tritiated N-methylscopolamine; 90 min, 37° C.; read-out: Ki against M2 receptor (Table 21, M2). The procedure, abridged: as §1
Sequence of human M2 receptor (P08172 whole entry): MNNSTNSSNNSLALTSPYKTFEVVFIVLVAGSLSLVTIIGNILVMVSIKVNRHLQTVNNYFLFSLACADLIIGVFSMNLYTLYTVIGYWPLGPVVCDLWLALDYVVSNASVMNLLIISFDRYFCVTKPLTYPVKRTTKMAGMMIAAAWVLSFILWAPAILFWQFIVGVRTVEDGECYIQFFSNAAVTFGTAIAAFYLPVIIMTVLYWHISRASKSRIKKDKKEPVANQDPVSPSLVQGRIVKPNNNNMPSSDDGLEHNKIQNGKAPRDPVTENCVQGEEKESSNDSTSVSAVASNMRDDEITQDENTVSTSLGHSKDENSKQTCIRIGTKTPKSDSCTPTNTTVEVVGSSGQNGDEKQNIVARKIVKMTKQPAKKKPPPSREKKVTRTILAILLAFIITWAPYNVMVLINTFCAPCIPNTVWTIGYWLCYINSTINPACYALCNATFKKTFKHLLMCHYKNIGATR
Another test concerns the target human M3 receptor (Homo sapiens (Human), UniProt P20309). Put plainly: Radioligand (tritiated N-methylscopolamine) binding assay, M3. To be noted: CHO cell membranes expressing human M3; 1.5 nM tritiated N-methylscopolamine; 90 min, 37° C.; read-out: Ki against M3 receptor (Table 21, M3). The procedure, abridged: as §1
The next test has as its target human M4 receptor (Homo sapiens (Human), UniProt P08173). As to the kind of experiment: Radioligand (tritiated N-methylscopolamine) binding assay, M4. To be noted: Ki against the M4 receptor; membranes from CHO cells expressing human M4; tritiated N-methylscopolamine 1.5 nM; read-out: Ki. In short, it runs like this: as §1
A further test addresses human M5 receptor (Homo sapiens (Human), UniProt P08912). Put plainly: Radioligand (tritiated N-methylscopolamine) binding assay, M5. To be noted: CHO cell membranes expressing human M5; 1.5 nM tritiated N-methylscopolamine; 90 min, 37° C.; read-out: Ki against M5 receptor (Table 21, M5). The procedure, abridged:
as §1

Sequence of human M3 receptor (P20309 whole entry): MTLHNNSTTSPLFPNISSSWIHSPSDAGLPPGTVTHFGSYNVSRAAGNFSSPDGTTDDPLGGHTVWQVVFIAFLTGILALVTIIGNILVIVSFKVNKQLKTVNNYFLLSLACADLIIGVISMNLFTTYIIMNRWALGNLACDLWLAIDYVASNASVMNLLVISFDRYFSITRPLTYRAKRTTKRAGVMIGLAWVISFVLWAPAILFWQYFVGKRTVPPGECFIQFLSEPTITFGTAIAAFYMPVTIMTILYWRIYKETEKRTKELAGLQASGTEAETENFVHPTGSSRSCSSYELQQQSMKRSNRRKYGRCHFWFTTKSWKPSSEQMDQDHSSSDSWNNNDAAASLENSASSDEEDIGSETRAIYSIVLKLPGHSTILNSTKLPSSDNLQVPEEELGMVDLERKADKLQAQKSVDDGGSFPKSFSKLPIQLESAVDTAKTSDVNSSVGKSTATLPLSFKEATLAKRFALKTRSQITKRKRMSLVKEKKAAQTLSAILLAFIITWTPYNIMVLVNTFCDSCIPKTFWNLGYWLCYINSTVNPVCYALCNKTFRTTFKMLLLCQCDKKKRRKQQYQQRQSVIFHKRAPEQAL
Sequence of human M1 receptor (P11229 whole entry): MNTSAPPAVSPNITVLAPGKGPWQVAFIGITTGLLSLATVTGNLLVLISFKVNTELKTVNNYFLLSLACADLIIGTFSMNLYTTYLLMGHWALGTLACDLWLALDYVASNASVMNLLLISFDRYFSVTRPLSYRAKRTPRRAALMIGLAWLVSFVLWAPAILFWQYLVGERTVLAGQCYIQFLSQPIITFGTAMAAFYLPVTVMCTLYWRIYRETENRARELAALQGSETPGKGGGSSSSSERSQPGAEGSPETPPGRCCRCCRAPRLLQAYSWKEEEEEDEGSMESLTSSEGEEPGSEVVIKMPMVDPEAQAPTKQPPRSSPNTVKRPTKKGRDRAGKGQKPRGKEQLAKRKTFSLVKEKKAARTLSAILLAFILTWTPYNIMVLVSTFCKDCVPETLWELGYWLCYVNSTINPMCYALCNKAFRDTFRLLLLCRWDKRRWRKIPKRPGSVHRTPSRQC
Sequence of human M4 receptor (P08173 whole entry): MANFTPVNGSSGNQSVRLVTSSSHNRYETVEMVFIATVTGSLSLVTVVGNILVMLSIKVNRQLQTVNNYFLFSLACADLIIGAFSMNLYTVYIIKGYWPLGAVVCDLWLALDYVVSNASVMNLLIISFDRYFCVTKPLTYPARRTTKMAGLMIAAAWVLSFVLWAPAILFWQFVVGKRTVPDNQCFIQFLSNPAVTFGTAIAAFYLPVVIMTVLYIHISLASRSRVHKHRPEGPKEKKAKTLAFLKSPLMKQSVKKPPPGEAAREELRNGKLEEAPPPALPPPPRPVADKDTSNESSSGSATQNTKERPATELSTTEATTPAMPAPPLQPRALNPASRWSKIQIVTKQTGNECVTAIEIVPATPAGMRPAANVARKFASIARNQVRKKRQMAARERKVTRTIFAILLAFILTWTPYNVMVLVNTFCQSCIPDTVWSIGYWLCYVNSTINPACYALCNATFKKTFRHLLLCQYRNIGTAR
Sequence of human M5 receptor (P08912 whole entry): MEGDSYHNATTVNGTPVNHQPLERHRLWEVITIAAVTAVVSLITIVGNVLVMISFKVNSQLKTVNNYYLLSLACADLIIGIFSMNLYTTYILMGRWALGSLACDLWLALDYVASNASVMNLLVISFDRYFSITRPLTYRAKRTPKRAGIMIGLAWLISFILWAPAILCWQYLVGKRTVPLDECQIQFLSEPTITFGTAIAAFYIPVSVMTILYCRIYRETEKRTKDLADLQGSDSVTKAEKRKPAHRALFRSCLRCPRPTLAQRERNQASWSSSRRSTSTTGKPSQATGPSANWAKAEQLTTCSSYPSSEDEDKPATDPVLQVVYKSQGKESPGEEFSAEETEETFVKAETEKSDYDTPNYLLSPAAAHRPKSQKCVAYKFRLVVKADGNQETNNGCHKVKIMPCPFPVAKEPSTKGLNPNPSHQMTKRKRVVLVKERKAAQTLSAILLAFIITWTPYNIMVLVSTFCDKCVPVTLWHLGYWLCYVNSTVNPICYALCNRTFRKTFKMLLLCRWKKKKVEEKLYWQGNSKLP

As to `O=C(NCCC1CCN(Cc2ccccc2)CC1)c1ccc(-c2ccc(OC(F)(F)F)cc2)cc1F` [9-6, N-[2-(1-benzylpiperidin-4-yl)ethyl]-2-fluoro-4-[4-(trifluoromethoxy)phenyl]benzamide], the Ki at human M1 receptor is 0.1 to 1 µM; on human M2 receptor it was 0.01 to 0.1 µM; on human M3 receptor, 0.1 to 1 µM; on human M4 receptor, less than 0.01 µM; on human M5 receptor, 0.1 to 1 µM.
On to `O=C(NCCC1CCN(Cc2ccccc2)CC1)c1ccc(-c2ccc(OC(F)(F)F)cc2)cc1` [9-7, N-[2-(1-benzylpiperidin-4-yl)ethyl]-4-[4-(trifluoromethoxy)phenyl]benzamide], for which the inhibition constant Ki at human M1 receptor was 0.1 to 1 µM; on human M2 receptor, 0.1 to 1 µM; at human M3 receptor, greater than 1 µM; at human M4 receptor, less than 0.01 µM; at human M5 receptor it was greater than 1 µM.
As to `O=C(NCC(O)C1CCN(Cc2ccccc2)CC1)C1CCN(c2ccc(OC(F)(F)F)cc2)CC1` (stereo not drawn) [9-8, N-[2-(1-benzylpiperidin-4-yl)-2-hydroxyethyl]-1-[4-(trifluoromethoxy)phenyl]piperidine-4-carboxamide], the Ki is greater than 1 µM at human M1 receptor; 0.1 to 1 µM at human M2 receptor; greater than 1 µM on human M3 receptor; less than 0.01 µM at human M4 receptor; greater than 1 µM at human M5 receptor.
Regarding `O=C(NCCC1(O)CCN(Cc2ccccc2)CC1)C1CCN(c2ccc(OC(F)(F)F)c(F)c2)CC1` [9-9, N-[2-(1-benzyl-4-hydroxypiperidin-4-yl)ethyl]-1-[3-fluoro-4-(trifluoromethoxy)phenyl]piperidine-4-carboxamide], the Ki on human M1 receptor was 0.1 to 1 µM; on human M2 receptor, 0.1 to 1 µM; at human M3 receptor, greater than 1 µM; on human M4 receptor, less than 0.01 µM; on human M5 receptor, greater than 1 µM.
`C[C@@H]1CN(c2ccc(OC(F)(F)F)c(C#N)c2)CCN1C(=O)NCC[C@H]1CCN(Cc2ccccc2)C1` [9-10, (2R)-N-{2-[(3S)-1-benzylpyrrolidin-3-yl]ethyl}-4-[3-cyano-4-(trifluoromethoxy)phenyl]-2-methylpiperazine-1-carboxamide]: the Ki at human M1 receptor is 0.1 to 1 µM; at human M2 receptor, 0.1 to 1 µM; at human M3 receptor, 0.1 to 1 µM; on human M4 receptor it was less than 0.01 µM; at human M5 receptor, greater than 1 µM.
`O=C(NCCC1CCN(Cc2ccccc2)CC1CO)C1CCN(c2ccc(OC(F)(F)F)cc2)CC1` (stereo not drawn) [9-62, N-{2-[1-benzyl-3-(hydroxymethyl)piperidin-4-yl]ethyl}-1-[4-(trifluoromethoxy)phenyl]piperidine-4-carboxamide]: the Ki is 0.1 to 1 µM on human M1 receptor; 0.1 to 1 µM at human M2 receptor; greater than 1 µM on human M3 receptor; less than 0.01 µM on human M4 receptor; greater than 1 µM at human M5 receptor.
On to `O=C(NCCC1CCN(Cc2ccccc2)CC1)C1CCN(c2ncc(C(F)(F)F)cc2Cl)CC1` [9-63, N-[2-(1-benzylpiperidin-4-yl)ethyl]-1-[3-chloro-5(trifluoromethyl)pyridin-2-yl]piperidine-4-carboxamide], for which the Ki at human M1 receptor was 0.01 to 0.1 µM; on human M2 receptor, less than 0.01 µM; at human M3 receptor it was 0.01 to 0.1 µM; at human M4 receptor, less than 0.01 µM; on human M5 receptor, 0.1 to 1 µM.
Regarding `O=C(NCCC1(CO)CCN(Cc2ccccc2)CC1)C1CCN(c2ccc(OC(F)(F)F)c(F)c2)CC1` [9-64, N-{2-[1-benzyl-4-(hydroxymethyl)piperidin-4-yl]ethyl}-1-[3-fluoro-4-(trifluoromethoxy)phenyl]piperidine-4-carboxamide], the Ki was 0.1 to 1 µM at human M1 receptor; 0.1 to 1 µM on human M2 receptor; greater than 1 µM on human M3 receptor; less than 0.01 µM on human M4 receptor; greater than 1 µM at human M5 receptor.
With `N#Cc1cc(N2CCC(C(=O)NCCC3CCN(Cc4ccccc4)CC3)CC2)ccc1F` [9-73, N-[2-(1-benzylpiperidin-4-yl)ethyl]-1-(3-cyano-4-fluorophenyl)piperidine-4-carboxamide], the Ki on human M1 receptor is greater than 1 µM; at human M2 receptor, 0.1 to 1 µM; at human M3 receptor, greater than 1 µM; at human M4 receptor, less than 0.01 µM; on human M5 receptor, greater than 1 µM.
For the molecule `O=C(NCCC1CCN(Cc2ccccc2)CC1)C1CCN(c2ccc3c(c2)OC(F)(F)O3)CC1` [10-5, N-[2-(1-benzylpiperidin-4-yl)ethyl]-1-(2,2-difluoro-2H-1,3-benzodioxol-5-yl)piperidine-4-carboxamide], the Ki is 0.1 to 1 µM at human M1 receptor; 0.01 to 0.1 µM on human M2 receptor; greater than 1 µM at human M3 receptor; less than 0.01 µM at human M4 receptor; greater than 1 µM at human M5 receptor.
Regarding `CC1CN(c2ccc(OC(F)(F)F)cc2)CCC1C(=O)NCCC1CCN(Cc2ccccc2)CC1` (stereo not drawn) [10-6, N-[2-(1-benzylpiperidin-4-yl)ethyl]-3-methyl-1-[4-(trifluoromethoxy)phenyl]piperidine-4-carboxamide], the Ki on human M1 receptor was 0.1 to 1 µM; at human M2 receptor, 0.1 to 1 µM; at human M3 receptor, greater than 1 µM; on human M4 receptor, less than 0.01 µM; on human M5 receptor, greater than 1 µM.
Take `O=C(NCCC1CCN(Cc2ccccc2)CC1)C1CCN(c2cc(F)c(F)c(F)c2)CC1` [10-7, N-[2-(1-benzylpiperidin-4-yl)ethyl]-1-(3,4,5-trifluorophenyl)piperidine-4-carboxamide]: the Ki at human M1 receptor is greater than 1 µM; at human M2 receptor, 0.1 to 1 µM; on human M3 receptor, greater than 1 µM; on human M4 receptor, less than 0.01 µM; at human M5 receptor it was greater than 1 µM.
As for `O=C(NCCC1CCN(Cc2ccccc2)CC1)C1CCN(c2ccc(OC(F)(F)F)c(F)c2)CC1` [10-8, N-[2-(1-benzylpiperidin-4-yl)ethyl]-1-[3-fluoro-4-(trifluoromethoxy)phenyl]piperidine-4-carboxamide], the Ki on human M1 receptor was greater than 1 µM; at human M2 receptor, 0.1 to 1 µM; on human M3 receptor it was greater than 1 µM; at human M4 receptor, less than 0.01 µM; on human M5 receptor, greater than 1 µM.
For the molecule `O=C(NCCC1CCN(Cc2ccccc2)CC1)C1CCN(c2ccc(C(F)(F)F)cc2)CC1` [10-9, N-[2-(1-benzylpiperidin-4-yl)ethyl]-1-[4-(trifluoromethyl)phenyl]piperidine-4-carboxamide], the inhibitory constant (Ki) on human M1 receptor is greater than 1 µM; on human M2 receptor, 0.1 to 1 µM; at human M3 receptor it was greater than 1 µM; on human M4 receptor it was less than 0.01 µM; at human M5 receptor it was greater than 1 µM.
Turning to `COc1cc(N2CCC(C(=O)NCCC3CCN(Cc4ccccc4)CC3)CC2)ccc1OC(F)(F)F` [10-10, N-[2-(1-benzylpiperidin-4-yl)ethyl]-1-[3-methoxy-4-(trifluoromethoxy)phenyl]piperidine-4-carboxamide], the Ki was 0.1 to 1 µM on human M1 receptor; 0.1 to 1 µM on human M2 receptor; greater than 1 µM at human M3 receptor; less than 0.01 µM at human M4 receptor; greater than 1 µM on human M5 receptor.
For `O=C(NCCC1CCN(Cc2ccccc2)CC1)C1CCN(c2ccc(F)c(OC(F)(F)F)c2)CC1` [10-11, N-[2-(1-benzylpiperidin-4-yl)ethyl]-1-[4-fluoro-3-(trifluoromethoxy)phenyl]piperidine-4-carboxamide], the Ki at human M1 receptor was 0.1 to 1 µM; at human M2 receptor, 0.1 to 1 µM; at human M3 receptor, greater than 1 µM; on human M4 receptor it was less than 0.01 µM; at human M5 receptor, greater than 1 µM.
Take `C[C@@H]1CN(c2ccc(OC(F)(F)F)cc2F)CCN1C(=O)NCCC1CCN(Cc2ccccc2)CC1` [10-12, (2R)-N-[2-(1-benzylpiperidin-4-yl)ethyl]-4-[2-fluoro-4-(trifluoromethoxy)phenyl]-2-methylpiperazine-1-carboxamide]: the Ki at human M1 receptor is 0.1 to 1 µM; at human M2 receptor, 0.01 to 0.1 µM; at human M3 receptor it was 0.1 to 1 µM; on human M4 receptor, less than 0.01 µM; at human M5 receptor, 0.1 to 1 µM.
On to `N#Cc1ccc(N2CCC(C(=O)NCCC3CCN(Cc4ccccc4)CC3)CC2)cc1OC(F)(F)F` [10-13, N-[2-(1-benzylpiperidin-4-yl)ethyl]-1-[4-cyano-3-(trifluoromethoxy)phenyl]piperidine-4-carboxamide], for which the Ki on human M1 receptor was 0.1 to 1 µM; at human M2 receptor, 0.1 to 1 µM; at human M3 receptor, greater than 1 µM; at human M4 receptor, less than 0.01 µM; at human M5 receptor it was greater than 1 µM.
In the case of `N#Cc1cc(F)cc(N2CCC(C(=O)NCCC3CCN(Cc4ccccc4)CC3)CC2)c1` [10-14, N-[2-(1-benzylpiperidin-4-yl)ethyl]-1-(3-cyano-5-fluorophenyl)piperidine-4-carboxamide], the Ki on human M1 receptor is greater than 1 µM; on human M2 receptor, 0.1 to 1 µM; at human M3 receptor, greater than 1 µM; at human M4 receptor, less than 0.01 µM; on human M5 receptor, greater than 1 µM.
`CC1CN(c2cccc(OC(F)(F)F)c2)CCC1C(=O)NCCC1CCN(Cc2ccccc2)CC1` (stereo not drawn) [10-18, N-[2-(1-benzylpiperidin-4-yl)ethyl]-3-methyl-1-[3-(trifluoromethoxy)phenyl]piperidine-4-carboxamide]: the Ki is greater than 1 µM at human M1 receptor; 0.1 to 1 µM at human M2 receptor; greater than 1 µM at human M3 receptor; less than 0.01 µM at human M4 receptor; greater than 1 µM at human M5 receptor.
As for `O=C(NCCC1CCN(Cc2ccccc2)CC1)C1CCN(c2cccc(OC(F)(F)F)c2)CC1` [10-19, N-[2-(1-benzylpiperidin-4-yl)ethyl]-1-[3-(trifluoromethoxy)phenyl]piperidine-4-carboxamide], the Ki was 0.1 to 1 µM on human M1 receptor; 0.1 to 1 µM on human M2 receptor; greater than 1 µM at human M3 receptor; less than 0.01 µM on human M4 receptor; greater than 1 µM on human M5 receptor.
